Test results reported in patent publication US20250288683A1, “TETRAHYDROISOQUINOLINE HETEROBIFUNCTIONAL BCL-XL DEGRADERS” (Treeline Biosciences, Inc., priority 2022, published 2025).

Target: T1, Human BCL-XL protein (N-terminal HiBiT tagged BCL-XL in HT1080 cells) (Homo sapiens, UniProt Q07817)
T1 construct: expressed in transfected cells; host or cells: HT-1080 (ATCC CCL-121), stably transduced with lentivirus pLV-UBC-N-HiBiT-BCL-XL-PGK-puro and selected with puromycin
Experiment: HiBiT based degradation assay
Assay type: cell-based
Conditions: HT1080 cells expressing N-terminal HiBiT tagged BCL-XL, normalized with DMSO control
Source text: HiBiT Based Degradation Assay
Human BCL-XL protein coding open reading frame fused with N-terminal HiBiT coding sequence was synthesized from Integrated DNA Technologies (IDT). Next, N-HiBiT-BCL-XL sequence was cloned into pLV-UBC-PGK-Puro, a lentivirus plasmid purchased from Vectorbuilder, to generate pLV-UBC-N-HiBiT-BCL-XL-PGK-puro. Lentiviral particles were generated from Lenti-X™ 293T cells (Clontech) by co-transfection of pLV-UBC-N-HiBiT-BCL-XL-PGK-puro plasmids and lentiviral packaging plasmid mix (Cellecta). HT-1080 [HT1080](ATCC CCL-121) cells were infected with the lentivirus, and HT1080 cells stably integrated with the lentiviral vectors were established by incubation with 1 μg/mL puromycin (Thermofisher).
HT1080 cells expressing N-terminal HiBiT tagged BCL-XL were dispensed into a 384-well plate pre-spotted with compounds at varying concentrations. Three thousand cells were seeded into each well in 40 μL of RPMI 1640 media. […] After incubation, luminescence was read on a PHERAstar FSX Plate Reader (BMG). BCL-XL degradation at each indicated concentration was normalized with the DMSO control. The BCL-XL degradation curves were plotted using a four-parameter logistic model. For compounds displaying hook effects, the curve fitting was performed using the bottom point of the hook curves (i.e., the point of Ymin) as the bottom plateau to calculate EC50.

T1 sequence (Q07817 whole entry): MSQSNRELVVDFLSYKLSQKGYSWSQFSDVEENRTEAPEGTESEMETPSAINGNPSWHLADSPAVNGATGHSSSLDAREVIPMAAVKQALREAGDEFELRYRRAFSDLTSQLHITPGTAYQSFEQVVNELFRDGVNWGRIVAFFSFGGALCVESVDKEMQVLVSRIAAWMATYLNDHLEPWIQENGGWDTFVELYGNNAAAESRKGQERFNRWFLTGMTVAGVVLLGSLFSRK

Row | Structure (SMILES) | Ymin (6 h) | Ymin (24 h)
1 | Cc1ncsc1-c1ccc([C@H](C)NC(=O)[C@@H]2C[C@@H](O)CN2C(=O)[C@@H](NC(=O)CCCCCCCCCCCCCn2nc(C)c(-c3ccc(N4CCc5cccc(C(=O)Nc6nc7ccccc7s6)c5C4)nc3C(=O)O)c2C)C(C)(C)C)cc1 [Compound 104a, 6-[8-(1,3-benzothiazol-2-ylcarbamoyl)-3,4-dihydro-1H-isoquinolin-2-yl]-3-[1-[14-[[(1S)-1-[(2S,4R)-4-hydroxy-2-[[(1S)-1-[4-(4-methylthiazol-5-yl)phenyl]ethyl]carbamoyl]pyrrolidine-1-carbonyl]-2,2-dimethyl-propyl]amino]-14-oxo-tetradecyl]-3,5-dimethyl-pyrazol-4-yl]pyridine-2-carboxylic acid] | B (50% ≤ Ymin < 70%) | –
2 | Cc1ncsc1-c1ccc([C@H](C)NC(=O)[C@@H]2C[C@@H](O)CN2C(=O)[C@@H](NC(=O)CCCCCCCOc2cccc(-c3ccc(N4CCc5cccc(C(=O)Nc6nc7ccccc7s6)c5C4)nc3C(=O)O)c2C)C(C)(C)C)cc1 [Compound 107a, 6-[8-(1,3-benzothiazol-2-ylcarbamoyl)-3,4-dihydro-1H-isoquinolin-2-yl]-3-[3-[8-[[(1S)-1-[(2S,4R)-4-hydroxy-2-[[(1S)-1-[4-(4-methylthiazol-5-yl)phenyl]ethyl]carbamoyl]pyrrolidine-1-carbonyl]-2,2-dimethyl-propyl]amino]-8-oxo-octoxy]-2-methyl-phenyl]pyridine-2-carboxylic acid] | B (50% ≤ Ymin < 70%) | –
3 | Cc1ncsc1-c1ccc([C@H](C)NC(=O)[C@@H]2C[C@@H](O)CN2C(=O)[C@@H](NC(=O)CCCCOc2cccc(-c3ccc(N4CCc5cccc(C(=O)Nc6nc7ccccc7s6)c5C4)nc3C(=O)O)c2C)C(C)(C)C)cc1 [Compound 108a, 6-[8-(1,3-benzothiazol-2-ylcarbamoyl)-3,4-dihydro-1H-isoquinolin-2-yl]-3-[3-[5-[[(1S)-1-[(2S,4R)-4-hydroxy-2-[[(1S)-1-[4-(4-methylthiazol-5-yl)phenyl]ethyl]carbamoyl]pyrrolidine-1-carbonyl]-2,2-dimethyl-propyl]amino]-5-oxo-pentoxy]-2-methyl-phenyl]pyridine-2-carboxylic acid] | A (Ymin < 50%) | A (Ymin < 50%)
4 | Cc1ncsc1-c1ccc([C@H](C)NC(=O)[C@@H]2C[C@@H](O)CN2C(=O)[C@@H](NC(=O)CCCCCCCCCNC(=O)c2nc(N3CCc4cccc(C(=O)Nc5nc6ccccc6s5)c4C3)ccc2-c2cnn(Cc3ccccc3)c2C)C(C)(C)C)cc1 [Compound 110a, N-(benzo[d]thiazol-2-yl)-2-(5-(1-benzyl-5-methyl-1H-pyrazol-4-yl)-6-((10-(((S)-1-((2S,4R)-4-hydroxy-2-(((S)-1-(4-(4-methylthiazol-5-yl)phenyl)ethyl)carbamoyl)pyrrolidin-1-yl)-3,3-dimethyl-1-oxobutan-2-yl)amino)-10-oxodecyl)carbamoyl)pyridin-2-yl)-1,2,3,4-tetrahydroisoquinoline-8-carboxamide] | A (Ymin < 50%) | –
5 | Cc1ncsc1-c1ccc([C@H](C)NC(=O)[C@@H]2C[C@@H](O)CN2C(=O)[C@@H](NC(=O)CCCCCCCCCn2nc(C)c(-c3ccc(N4CCc5cccc(C(=O)Nc6nc7ccccc7s6)c5C4)nc3C(=O)O)c2C)C(C)(C)C)cc1 [Compound 111a, 6-[8-(1,3-benzothiazol-2-ylcarbamoyl)-3,4-dihydro-1H-isoquinolin-2-yl]-3-[1-[10-[[(1S)-1-[(2S,4R)-4-hydroxy-2-[[(1S)-1-[4-(4-methylthiazol-5-yl)phenyl]ethyl]carbamoyl]pyrrolidine-1-carbonyl]-2,2-dimethyl-propyl]amino]-10-oxo-decyl]-3,5-dimethyl-pyrazol-4-yl]pyridine-2-carboxylic acid] | B (50% ≤ Ymin < 70%) | –
6 | Cc1ncsc1-c1ccc([C@H](C)NC(=O)[C@@H]2C[C@@H](O)CN2C(=O)[C@@H](NC(=O)Cc2ccc(Oc3cccc(-c4ccc(N5CCc6cccc(C(=O)Nc7nc8ccccc8s7)c6C5)nc4C(=O)O)c3C)cc2)C(C)(C)C)cc1 [Compound 113a, 6-[8-(1,3-benzothiazol-2-ylcarbamoyl)-3,4-dihydro-1H-isoquinolin-2-yl]-3-[3-[4-[2-[[(1S)-1-[(2S,4R)-4-hydroxy-2-[[(1S)-1-[4-(4-methylthiazol-5-yl)phenyl]ethyl]carbamoyl]pyrrolidine-1-carbonyl]-2,2-dimethyl-propyl]amino]-2-oxo-ethyl]phenoxy]-2-methyl-phenyl]pyridine-2-carboxylic acid] | A (Ymin < 50%) | A (Ymin < 50%)
7 | Cc1ncsc1-c1ccc([C@H](C)NC(=O)[C@@H]2C[C@@H](O)CN2C(=O)[C@@H](NC(=O)C[C@H]2CC[C@H](Oc3cccc(-c4ccc(N5CCc6cccc(C(=O)Nc7nc8ccccc8s7)c6C5)nc4C(=O)O)c3C)CC2)C(C)(C)C)cc1 [Compound 116a, 6-(8-(benzo[d]thiazol-2-ylcarbamoyl)-3,4-dihydroisoquinolin-2 (1H)-yl)-3-(3-(((1S,4r)-4-(2-(((S)-1-((2S,4R)-4-hydroxy-2-(((S)-1-(4-(4-methylthiazol-5-yl)phenyl)ethyl)carbamoyl)pyrrolidin-1-yl)-3,3-dimethyl-1-oxobutan-2-yl)amino)-2-oxoethyl)cyclohexyl)oxy)-2-methylphenyl)picolinic acid] | – | A (Ymin < 50%)

The next lines start with the values.

Row | Ymin (6 h) | Ymin (24 h) | Structure (SMILES)
8 | A (Ymin < 50%) | A (Ymin < 50%) | Cc1ncsc1-c1ccc([C@H](C)NC(=O)[C@@H]2C[C@@H](O)CN2C(=O)[C@@H](NC(=O)CCCCCOc2cccc(-c3ccc(N4CCc5cccc(C(=O)Nc6nc7ccccc7s6)c5C4)nc3C(=O)O)c2C)C(C)(C)C)cc1 [Compound 105a, 6-(8-(Benzo[d]thiazol-2-ylcarbamoyl)-3,4-dihydroisoquinolin-2(1H)-yl)-3-(3-((6-(((S)-1-((2S,4R)-4-hydroxy-2-(((S)-1-(4-(4-methylthiazol-5-yl)phenyl)ethyl)carbamoyl)pyrrolidin-1-yl)-3,3-dimethyl-1-oxobutan-2-yl)amino)-6-oxohexyl)oxy)-2-methylphenyl)picolinic acid]
9 | A (Ymin < 50%) | A (Ymin < 50%) | Cc1ncsc1-c1ccc([C@H](C)NC(=O)[C@@H]2C[C@@H](O)CN2C(=O)[C@@H](NC(=O)CCCCCCOc2cccc(-c3ccc(N4CCc5cccc(C(=O)Nc6nc7ccccc7s6)c5C4)nc3C(=O)O)c2C)C(C)(C)C)cc1 [Compound 106a, 6-(8-(benzo[d]thiazol-2-ylcarbamoyl)-3,4-dihydroisoquinolin-2(1H)-yl)-3-(3-((7-(((S)-1-((2S,4R)-4-hydroxy-2-(((S)-1-(4-(4-methylthiazol-5-yl)phenyl)ethyl)carbamoyl)pyrrolidin-1-yl)-3,3-dimethyl-1-oxobutan-2-yl)amino)-7-oxoheptyl)oxy)-2-methylphenyl)picolinic acid]
10 | B (50% ≤ Ymin < 70%) | B (50% ≤ Ymin < 70%) | Cc1ncsc1-c1ccc([C@H](C)NC(=O)[C@@H]2C[C@@H](O)CN2C(=O)[C@@H](NC(=O)CCc2ccc(Oc3cccc(-c4ccc(N5CCc6cccc(C(=O)Nc7nc8ccccc8s7)c6C5)nc4C(=O)O)c3C)cc2)C(C)(C)C)cc1 [Compound 112a, 6-[8-(1,3-benzothiazol-2-ylcarbamoyl)-3,4-dihydro-1H-isoquinolin-2-yl]-3-[3-[4-[3-[[(1S)-1-[(2S, 4R)-4-hydroxy-2-[[(1S)-1-[4-(4-methylthiazol-5-yl)phenyl]ethyl]carbamoyl]pyrrolidine-1-carbonyl]-2,2-dimethyl-propyl]amino]-3-oxo-propyl]phenoxy]-2-methyl-phenyl]pyridine-2-carboxylic acid]
11 | B (50% ≤ Ymin < 70%) | A (Ymin < 50%) | Cc1ncsc1-c1ccc([C@H](C)NC(=O)[C@@H]2C[C@@H](O)CN2C(=O)[C@@H](NC(=O)CCc2ccc(COc3cccc(-c4ccc(N5CCc6cccc(C(=O)Nc7nc8ccccc8s7)c6C5)nc4C(=O)O)c3C)cc2)C(C)(C)C)cc1 [Compound 114a, 6-(8-(benzo[d]thiazol-2-ylcarbamoyl)-3,4-dihydroisoquinolin-2(1H)-yl)-3-(3-((4-(3-(((S)-1-((2S,4R)-4-hydroxy-2-(((S)-1-(4-(4-methylthiazol-5-yl)phenyl)ethyl)carbamoyl)pyrrolidin-1-yl)-3,3-dimethyl-1-oxobutan-2-yl)amino)-3-oxopropyl)benzyl)oxy)-2-methylphenyl)picolinic acid]
12 | A (Ymin < 50%) | A (Ymin < 50%) | Cc1ncsc1-c1ccc([C@H](C)NC(=O)[C@@H]2C[C@@H](O)CN2C(=O)[C@@H](NC(=O)CCCc2ccc(Oc3cccc(-c4ccc(N5CCc6cccc(C(=O)Nc7nc8ccccc8s7)c6C5)nc4C(=O)O)c3C)cc2)C(C)(C)C)cc1 [Compound 115a, 6-(8-(benzo[d]thiazol-2-ylcarbamoyl)-3,4-dihydroisoquinolin-2 (1H)-yl)-3-(3-(4-(4-(((S)-1-((2S,4R)-4-hydroxy-2-(((S)-1-(4-(4-methylthiazol-5-yl)phenyl)ethyl)carbamoyl)pyrrolidin-1-yl)-3,3-dimethyl-1-oxobutan-2-yl)amino)-4-oxobutyl)phenoxy)-2-methylphenyl)picolinic acid]
